The text below walks through data of patent US10676486B2, “Macrocyclic RIP2 kinase inhibitors” (ONCODESIGN S.A., priority 2014, dated 2020).

For data set [1] the following is noted: several clinical cases; The Oncologist (2013) 18: e3-e5; cited from earlier work.
Data set [2] addresses RIP2 recombinant protein (Homo sapiens, UniProt O43353). The data set can be described thus: Radiometric protein kinase assay (33PanQinase Activity Assay) for RIP2, peptide-based. As to conditions: for remaining activity at 0.1 µM / remaining activity at 1 µM: 1 h; for remaining activity at 0.1 µM: compound at 0.1 μM; for remaining activity at 1 µM: compound at 1 μM; for IC50: ATP 3.0 μM, RIP2 15.7 nM, 30° C., 60 minutes. In kind it is biochemical. How it is done: The inhibition of RIP2 kinase was assessed using RIP2 recombinant protein in an in vitro peptide-based kinase assay.
A radiometric protein kinase assay (^33PanQinase® Activity Assay) is used for measuring the kinase activity. All assays are performed in 96-well FlashPlates™ from Perkin Elmer in a 50 μl reaction volume. The reaction cocktail is pipetted in 4 steps in the following order: • 10 μl of non-radioactive ATP solution (in H2O) • 25 μl of assay buffer/[γ-^33P]-ATP mixture • 5 μl of test sample in 10% DMSO • 10 μl of enzyme/substrate mixture
The assay for RIP2 contains 70 mM HEPES-NaOH pH 7.5, 3 mM MgCl2, 3 mM MnCl2, 3 μM Na-orthovanadate, 1.2 mM DTT, 50 μg/mI PEG20000, ATP (3.0 μM), [γ-^33P]-ATP (approx. 5×10^05 cpm per well), protein kinase RIP2 (15.7 nM) and substrate (RBER-Chktide), 2.0 μg/50 μl).
The reaction cocktails were incubated at 30° C. for 60 minutes. The reaction was stopped with 50 μl of 2% (v/v) H3PO4, plates were aspirated and washed two times with 200 μl 0.9% (w/v) NaCl. Incorporation of ^33Pi (counting of “cpm”) was determined with a microplate scintillation counter.
The compounds are dissolved to 10 mM in DMSO. Where needed, solutions are sonicated in a bath sonicator.
Table 4 provides the pIC50 values and % Remaining activity values at two concentrations (1 μM and 0.1 μM) of the compounds according to the invention, obtained using the above mentioned kinase assay.

In data set [3] the target is T1, RIP2 (Mus musculus, UniProt P58801).
T1 construct: host or cells: mouse (in vivo colitis models)
T1 sequence (P58801 whole entry): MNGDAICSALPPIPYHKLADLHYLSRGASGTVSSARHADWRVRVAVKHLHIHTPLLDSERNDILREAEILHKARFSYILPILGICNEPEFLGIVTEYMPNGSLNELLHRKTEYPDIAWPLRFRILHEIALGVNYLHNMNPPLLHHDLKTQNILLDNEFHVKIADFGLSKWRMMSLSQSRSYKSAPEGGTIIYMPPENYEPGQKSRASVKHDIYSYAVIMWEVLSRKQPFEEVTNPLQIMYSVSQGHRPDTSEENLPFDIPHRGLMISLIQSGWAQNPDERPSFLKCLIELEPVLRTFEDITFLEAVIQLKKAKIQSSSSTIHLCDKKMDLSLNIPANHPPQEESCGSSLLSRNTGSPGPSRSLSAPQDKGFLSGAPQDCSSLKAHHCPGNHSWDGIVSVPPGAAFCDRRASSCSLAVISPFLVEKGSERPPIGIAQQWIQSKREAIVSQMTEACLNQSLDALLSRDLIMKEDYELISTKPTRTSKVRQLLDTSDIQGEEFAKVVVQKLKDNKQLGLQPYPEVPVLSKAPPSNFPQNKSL
To be noted: mouse models of chronic inflammatory bowel diseases; J Biol Chem. (2005) 15, 14981-14988; cited from earlier work.

By remaining activity is commonly meant what remains of the control signal, in per cent. The term IC50 denotes the point on the concentration scale where inhibition reaches its midpoint. Broadly, the melting point is the temperature, or range, at which the solid turns liquid.

Chain of RIP2 recombinant protein (O43353 whole entry): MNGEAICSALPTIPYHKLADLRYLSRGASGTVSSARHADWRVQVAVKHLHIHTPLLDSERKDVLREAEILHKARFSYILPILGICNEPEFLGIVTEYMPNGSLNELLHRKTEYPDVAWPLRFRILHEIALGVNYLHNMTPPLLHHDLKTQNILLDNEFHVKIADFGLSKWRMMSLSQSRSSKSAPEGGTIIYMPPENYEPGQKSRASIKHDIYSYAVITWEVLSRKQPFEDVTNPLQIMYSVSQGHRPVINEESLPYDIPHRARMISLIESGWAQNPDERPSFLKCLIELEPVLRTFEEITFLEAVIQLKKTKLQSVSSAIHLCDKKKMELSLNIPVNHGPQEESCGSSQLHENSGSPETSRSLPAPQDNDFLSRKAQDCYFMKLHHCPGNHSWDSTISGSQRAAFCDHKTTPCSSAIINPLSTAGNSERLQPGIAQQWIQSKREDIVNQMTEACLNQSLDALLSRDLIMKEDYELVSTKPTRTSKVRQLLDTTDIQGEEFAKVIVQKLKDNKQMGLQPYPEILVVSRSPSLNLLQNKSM

Consider `C#Cc1cccc(Nc2ncnc3cc(OCCOC)c(OCCOC)cc23)c1` [Erlotinib], for which the “clinical effect on psoriasis, arthritic symptoms or insulin-resistant type 2 diabetes” value in data set [1] is “efficient to clear psoriasis or reduce arthritic symptoms or insulin-resistant type 2 diabetes”.

Consider `Fc1cc2cc(c1)-c1cnn3ccc(nc13)NC[C@H]1CCCN1CCCO2` [Compound O6], for which the melting point is above 300 °C. In data set [2], the remaining activity at 0.1 µM is below 50%, the remaining activity at 1 µM is below 50% and the half-maximal inhibitory concentration (IC50) was below 100 nM.

With `c1cc2cc(c1)-c1cnn3ccc(nc13)NCC1CCCN1CCO2` (stereo not drawn) [Compound O1], the melting point was above 300 °C. In data set [2], the remaining activity at 0.1 µM was below 50%, the remaining activity at 1 µM is below 50% and the IC50 is below 100 nM.

For `Clc1cc2cc(c1)-c1cnn3ccc(nc13)NC[C@@H]1CCCN1CCCO2` [Compound O9], the melting point was above 300 °C. Besides, in data set [2], the remaining activity at 0.1 µM is below 50%, the remaining activity at 1 µM was below 50% and the 50% inhibitory concentration (IC50) is below 100 nM.

`Clc1cc2cc(c1)-c1cnn3ccc(nc13)NC[C@H]1CCCN1CCCO2` [Compound O3]: the melting point worked out at 186.4 °C. In data set [2], the remaining activity at 0.1 µM was below 50%, the remaining activity at 1 µM was below 50% and the IC50 was below 100 nM.

With `COc1cc2ncnc(Nc3ccc(F)c(Cl)c3)c2cc1OCCCN1CCOCC1` [Gefitinib], the “clinical effect on psoriasis, arthritic symptoms or insulin-resistant type 2 diabetes” value in data set [1] is listed as “efficient to clear psoriasis or reduce arthritic symptoms or insulin-resistant type 2 diabetes”.

Turning to `Fc1cc2cc(c1)-c1cnn3ccc(nc13)NC[C@@H]1CCCN1CCCO2` [Compound O11], in data set [2], the remaining activity at 0.1 µM is below 50%, the remaining activity at 1 µM was below 50% and the IC50 is below 100 nM.

For the molecule `Fc1cc2cc(c1)-c1cnn3ccc(nc13)NCC[C@H]1CCCN1CCO2` [Compound O7], the melting point was above 300 °C. In data set [2], the remaining activity at 0.1 µM was below 50%, the remaining activity at 1 µM was below 50% and the IC50 was below 100 nM.

Regarding `C[S+]([O-])c1ccc(-c2nc(-c3ccncc3)c(-c3ccc(F)cc3)[nH]2)cc1` (stereo not drawn) [SB203580], in data set [3], the “effect on induced colitis” value is on record as “efficacious to reduce induced-colitis”.

In the case of `Fc1cc2cc(c1)-c1cnn3ccc(nc13)NCC1CCCCN1CCCO2` (stereo not drawn) [Compound O14], the IC50 in data set [2] is below 100 nM.

`CN1C[C@@H]2CCCN2CCOc2cccc(c2)-c2cnn3ccc1nc23` [Compound O10] came in with a melting point of 198.5 °C. Also, in data set [2], the remaining activity at 0.1 µM is below 50%, the remaining activity at 1 µM is below 50% and the IC50 is below 100 nM.

In turn, `Clc1cc2cc(c1)-c1cnn3ccc(nc13)NC[C@@H]1CCCN1CCO2` [Compound O4] returned a melting point above 300 °C. In addition, in data set [2], the remaining activity at 0.1 µM was below 50%, the remaining activity at 1 µM is below 50% and the IC50 is below 100 nM.

With `Fc1cc2cc(c1)-c1cnn3ccc(nc13)NC[C@@H]1CCCN1CCO2` [Compound O5], the melting point was 241 °C. In data set [2], the remaining activity at 0.1 µM was below 50%, the remaining activity at 1 µM is below 50% and the IC50 is below 100 nM.

For `Fc1c(Cl)cc2cc1OCCN1CCC[C@H]1CNc1ccn3ncc-2c3n1` [Compound O12], in data set [2], the remaining activity at 0.1 µM is below 50%, the remaining activity at 1 µM is below 50% and the IC50 was below 100 nM.

`CN1CC2CCCN2CCOc2cccc(c2)-c2cnn3ccc1nc23` (stereo not drawn) [Compound O2] registered a melting point of 91.2 °C. In data set [2], the IC50 was below 100 nM.

As to `Fc1cc2cc(c1)-c1cnn3ccc(nc13)NCC1CCCCN1CCO2` (stereo not drawn) [Compound O13], in data set [2], the remaining activity at 0.1 µM was below 50%, the remaining activity at 1 µM is below 50% and the IC50 is below 100 nM.

The molecule `c1cc2cc(c1)-c1cnn3ccc(nc13)NC[C@@H]1CCCN1CCO2` [Compound O8] gave a melting point above 300 °C. Also, in data set [2], the remaining activity at 0.1 µM is below 50%, the remaining activity at 1 µM was below 50% and the IC50 was below 100 nM.
